The supplement of paper PMC10307832

Assays:
Assay in all cases: relative viability (nuclei count vs DMSO), 5 days (fraction); higher = more cells survive
MLN4924 + Foretinib = compound: NS(=O)(=O)OC[C@@H]1C[C@@H](n2ccc3c(N[C@H]4CCc5ccccc54)ncnc32)C[C@@H]1O [MLN4924] + COc1cc2c(Oc3ccc(NC(=O)C4(C(=O)Nc5ccc(F)cc5)CC4)cc3F)ccnc2cc1OCCCN1CCOCC1 [Foretinib] (partner 0.25 µM)
In short: (§1)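 Relative viability divides the nuclei count in treated wells by that in vehicle wells. Lung cancer cell lines were seeded in 1536-well plates, dosed by pin tool the next day, and fixed and stained after 5 days in one step with final 0.05% Triton X-100, 1% formaldehyde and 1 ug/ml Hoechst. Dosing was a single drug or a fixed anchor-drug dose plus five library-drug doses (not always all listed) in √10 steps, and values are medians of duplicate plates imaged at 4×.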

GSK126 + Decitabine = compound: CC[C@H](C)N1C=C(C2=C(C=C(C=C21)C3=CN=C(C=C3)N4CCNCC4)C(=O)NCC5=C(C=C(NC5=O)C)C)C [GSK126] + Nc1ncn([C@H]2C[C@H](O)[C@@H](CO)O2)c(=O)n1 [Decitabine] (partner 2 µM)
In short: as §1

GSK126 + Dasatinib = compound: CC[C@H](C)N1C=C(C2=C(C=C(C=C21)C3=CN=C(C=C3)N4CCNCC4)C(=O)NCC5=C(C=C(NC5=O)C)C)C [GSK126] + Cc1nc(Nc2ncc(C(=O)Nc3c(C)cccc3Cl)s2)cc(N2CCN(CCO)CC2)n1 [Dasatinib] (partner 0.075 µM)
In short: as §1

Carboplatin + Tozasertib = compound: C1CC(C1)(C(=O)O)C(=O)O.[NH2-].[NH2-].[Pt+2] [Carboplatin] + Cc1cc(Nc2cc(N3CCN(C)CC3)nc(Sc3ccc(NC(=O)C4CC4)cc3)n2)n[nH]1 [Tozasertib] (partner 0.1 µM)
In short: as §1

Cell Line: UMC-11
- relative viability (MLN4924 + Foretinib; first compound 0.04 µM): 0.57
- relative viability (MLN4924 + Foretinib; first compound 0.1265 µM): 0.307
- relative viability (MLN4924 + Foretinib; first compound 0.4 µM): 0.298
- relative viability (MLN4924 + Foretinib; first compound 1.265 µM): 0.191
- relative viability (MLN4924 + Foretinib; first compound 4 µM): 0.173
- relative viability (GSK126 + Decitabine; first compound 0.08 µM): 0.695
- relative viability (GSK126 + Decitabine; first compound 0.253 µM): 0.557
- relative viability (GSK126 + Decitabine; first compound 0.8 µM): 0.626
- relative viability (GSK126 + Decitabine; first compound 2.53 µM): 0.604
- relative viability (GSK126 + Decitabine; first compound 8 µM): 0.658
- relative viability (GSK126 + Dasatinib; first compound 0.08 µM): 0.512
- relative viability (GSK126 + Dasatinib; first compound 0.253 µM): 0.475
- relative viability (GSK126 + Dasatinib; first compound 0.8 µM): 0.443
- relative viability (GSK126 + Dasatinib; first compound 2.53 µM): 0.417
- relative viability (GSK126 + Dasatinib; first compound 8 µM): 0.437
- relative viability (Carboplatin + Tozasertib; first compound 0.08 µM): 0.22
- relative viability (Carboplatin + Tozasertib; first compound 0.253 µM): 0.208
- relative viability (Carboplatin + Tozasertib; first compound 0.8 µM): 0.207
- relative viability (Carboplatin + Tozasertib; first compound 2.53 µM): 0.193
- relative viability (Carboplatin + Tozasertib; first compound 8 µM): 0.212
